One block for each compound: values may come before it.
Key:
Gαi = test: NanoBiT Gαi1 dissociation assay (split luciferase); format: cell-based; details: 60 minutes
Experimental: The NanoBiT G-protein dissociation assay, based on a split-luciferase system, was performed as previously described with some modifications (Inoue et al., 2019). All DNA constructs were provided by Dr. Asuka Inoue (Tohoku University, Japan). NanoBiT plasmids (pCAGGS) include Gαi1-LgBiT, Gβ1-native, and SmBiT-Gγ2 (CAAX C68S mutant). Gαi-DREADD (pcDNA3.1) was used as a synthetic Gαi-coupled GPCR. Briefly, CAL-33 and HET-1A cells were seeded on poly-D-lysine coated (Sigma, Cat #P7280), opaque, white 96-well plates (Falcon Cat #353296). The following day cells were transfected with NanoBiT and receptor plasmids using Lipofectamine 3000 (ThermoFisher Scientific, Cat #L3000008) according to manufacturer recommendations for a 12-well scale (10 μL transfection mix to each well). The NanoBiT plasmids were mixed at a ratio of 100 ng Gαi1-LgBiT, 500 ng Gβ1, 500 ng SmBiT-Gγ2, and 200 ng of receptor if needed. For gene knockdown experiments, 10 pmol of pooled siControl (Dharmacon, Cat #D-001810-10-20), siFGFR3 (Mission siRNA, Cat #SIHK0780, SIHK0781, SIHK0782), or siDaple (Dharmacon, Cat #L-033364-01-0005) was included in the plasmid mix. Media was changed the following day. Two days after transfection, media was aspirated from each well and washed once with HBSS. Cells were incubated in HBSS with a final concentration of 5 μM native coelenterazine (Biotium, Cat #10110-1) for 30 minutes at room temperature protected from light. Basal luminescence was read and ligand prepared for final concentrations of 10 ng/mL human bFGF (Roche Cat #11123149001) and 10 μM clozapine-N-oxide (Cayman Chemical, Cat #NC1044836). After ligand addition, luminescence was read in kinetic loops (each well ˜every 30 seconds) for 60 minutes total (Tecan Spark). Raw luminescent values were normalized to the corresponding basal value for each well and subsequently to the mean vehicle ratio (raw/basal) at time 0. Significance was calculated using a one-way ANOVA at the 60 minute time point.
To test this idea, a split luciferase assay (Gαi NanoBiT) was used, in which signal is lost upon activation of Gαi and dissociation from Gβγ (FIG. 15C and FIG. 16A). As a control, an engineered Designer Receptor Exclusively Activated by Designer Drugs (DREADD) receptor was first transfected, and the resulting cell population stimulated with the DREADD ligand, clozapine-N-oxide (CNO).
Referring to FIG. 15C, NanoBiT biosensor measures Gαi activation through dissociation of the luciferase split between Gα and Gβγ. CNO mediates canonical GPCR signaling through the synthetic Gαi-coupled DREADD receptor. FGF mediates HNSCC-specific signaling through FGFR3 and Daple.

[1] = system: solid tumors with FGFR mRNA overexpression; details: phase I trials; cited from earlier work
CAL-33 cells = test: Scratch migration assay; format: cell-based; details: fibronectin-plated CAL-33 cells; 10 ng/mL bFGF, 24 hours; versus vehicle
Experimental: CAL-33 cells were seeded on 12-well plates coated with 10 μg/mL fibronectin in PBS (Sigma Aldrich, Cat #F2006-1MG). Once cells reached confluence, a vertical scratch was made with a pipette tip and washed well with PBS before adding serum-free media. Cells were stimulated with vehicle, 10 ng/mL bFGF, or 1% serum for 24 hours. Images were taken at the 0 and 24 hour time points (2× magnification) and the scratch area was quantified using ImageJ. Percent scratch closure was calculated for each well and significance assessed using a one-way ANOVA.
Referring to FIG. 15H, a vertical scratch was introduced to fibronectin-plated CAL-33 cells. Images were taken at 0 and 24 hours after FGF stimulation (scale bar=200 μm). (I) Quantification of replicate scratch closure assays from panel H (*P<0.05 when compared with the vehicle-treated group).

ERK phosphorylation = ERK phosphorylation immunoblot after FGF stimulation; format: cell-based; details: FGF 10 ng/mL, time course
Experimental: (§1) CAL-33 and HET-1A cells were seeded on poly-D-lysine-coated 6-well plates. Cells were transfected with siRNA using Lipofectamine RNAiMAX (Thermo Fisher Scientific, Cat #100014472) according to manufacturer recommendations. After overnight serum starvation, cells were stimulated with vehicle, 10 ng/mL bFGF, or 10 μM CNO. Cells were washed once with PBS and lysed in RIPA buffer (50 mM Tris-HCl pH 6.8, 150 mM NaCl, 1% NP-40, 0.5% sodium deoxycholate, 0.1% SDS) with protease and phosphatase inhibitors (Bimake, Cat #B14001, B15001-A/B). Lysates were briefly sonicated and cleared by centrifugation before boiling in Laemmli sample buffer (Bio-Rad Cat #1610747). After separation on 10% acrylamide gels and transfer to PVDF membranes, membranes were blocked with 2% BSA in TBST before incubating with antibodies. […]
Referring to FIG. 16C, ERK phosphorylation over a time course was measured by immunoblotting in CAL-33 and HET-1A cells stimulated with FGF (10 ng/mL).

PAK1/2 phosphorylation = PAK1/2 phosphorylation immunoblot after FGF stimulation; format: cell-based; details: FGF stimulation 0, 5, 10, 30, 60 minutes
Experimental: as §1
Referring to FIG. 15G, PAK1/2 autophosphorylation was measured by immunoblot analysis over a time course of FGF stimulation (0, 5, 10, 30, 60 minutes) in CAL-33 and HET-1A cells.

- Gαi activation (loss of luciferase signal) (Gαi; CAL-33 cells expressing Gαi NanoBiT and DREADD receptor, CNO 10 μM): Robust Gαi activation
- Gαi activation (loss of luciferase signal) (Gαi; HET-1A cells expressing Gαi NanoBiT and DREADD receptor, CNO 10 μM): Robust Gαi activation
Compound: C[N+]1([O-])CCN(C2=Nc3cc(Cl)ccc3Nc3ccccc32)CC1 [CNO, clozapine-N-oxide]

Compound: COCc1c(-c2cc3cc(C)cc(OC)c3s2)c2c(N)ncnn2c1CN1CCNC(=O)C1 [rogaratinib]
- objective response rate [1]: 67%

- Gαi activation (loss of luciferase signal) (Gαi; CAL-33 cells, Gαi NanoBiT, FGF 10 ng/mL): induce Gαi activation
- Gαi activation (loss of luciferase signal) (Gαi; HET-1A cells, Gαi NanoBiT, FGF 10 ng/mL): no such activation occurred
Compound: FGF: human bFGF (Roche), fibroblast growth factor used as ligand for stimulation
- cell migration (scratch closure) (CAL-33 cells): statistically significant increase
- ERK phosphorylation (ERK phosphorylation; CAL-33 cells): rapidly induced ERK phosphorylation
- ERK phosphorylation (ERK phosphorylation; HET-1A cells): rapidly induced ERK phosphorylation
- phosphorylation of PAK1/2 (PAK1/2 phosphorylation; CAL-33 cells): results in downstream phosphorylation of PAK1/2
- phosphorylation of PAK1/2 (PAK1/2 phosphorylation; HET-1A cells): not observed
